We go through twelve compounds from US20230100559A1, “Compositions and Methods for Treatment of Disease by Manipulation of Serine Metabolism” (The Trustees of Princeton University, priority 2020, published 2023).

As a reminder, the IC50 is the concentration that gives 50% inhibition. A high value points to a need for much substance.

In assay [1] the test system is HCT116 cells. The experiment in a line: Cell proliferation assay, HCT116. Format: cell-based. On the procedure: (§1) Cell Proliferation Assays. Cells were seeded in seeded in 96 well plates (Corning 3603) for overnight attachment. Medium (with or without drugs) was changed next day, and cell numbers were recorded using Thermofisher CyQUANT kit.
For another assay, the system named is C2C12 cells. The experiment in a line: C2C12 cells treated with metformin, serine catabolism inhibition. It counts as cell-based. Particulars: C2C12, 5 mM metformin, SHIN1 250 nM. On the procedure: (§2) Adherent cells. Cells were seeded in 6 well plates overnight and then were treated with ETC inhibitors. Serine-free DMEM with 10% dialyzed FBS was supplemented with 400 µM [2,3,3, 2H]serine. Medium was replaced by the isotope tracing medium with corresponding drugs, and cells were incubated for 3 h. Medium was aspirated, and metabolism was quenched with extraction buffer (40:40:20 acetonitrile:methanol: water with 0.5% formic acid; 40 μl of extraction solvent per 1 μl packed cell volume)(Lu et al., 2018). Plates were placed on dry ice for 10 mins, and thereafter the extraction solution was neutralized with 15% NH4HCO3 (70 μl for 800 μl extraction buffer). Cells were then scraped off from plates by using a cell lifter (Corning 3008), transferred into Eppendorf tubes and centrifuged in a benchtop microfuge at maximum speed for 30 min at 4° C. Supernatant was transferred to LC-MS vials for analysis.
as §1

The target in the next assay is T1, SHMT2 (Homo sapiens, UniProt P34897).
T1 sequence (P34897 30-504): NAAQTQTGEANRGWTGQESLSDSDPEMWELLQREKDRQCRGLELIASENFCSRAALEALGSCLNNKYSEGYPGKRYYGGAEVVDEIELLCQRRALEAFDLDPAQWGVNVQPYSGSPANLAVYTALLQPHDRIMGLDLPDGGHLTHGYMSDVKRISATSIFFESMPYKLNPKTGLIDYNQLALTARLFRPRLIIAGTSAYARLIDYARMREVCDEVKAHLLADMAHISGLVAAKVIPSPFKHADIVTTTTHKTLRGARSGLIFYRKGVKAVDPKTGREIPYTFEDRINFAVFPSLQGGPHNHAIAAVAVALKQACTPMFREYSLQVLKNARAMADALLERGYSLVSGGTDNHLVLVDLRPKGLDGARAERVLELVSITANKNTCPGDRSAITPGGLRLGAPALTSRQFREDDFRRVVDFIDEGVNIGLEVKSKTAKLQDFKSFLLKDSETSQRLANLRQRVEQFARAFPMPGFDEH
The experiment in a line: SHMT2 inhibition (Table 2). Format: biochemical.

The next assay addresses T2, SHMT1 (Homo sapiens, UniProt P34896).
T2 sequence (P34896 1-483): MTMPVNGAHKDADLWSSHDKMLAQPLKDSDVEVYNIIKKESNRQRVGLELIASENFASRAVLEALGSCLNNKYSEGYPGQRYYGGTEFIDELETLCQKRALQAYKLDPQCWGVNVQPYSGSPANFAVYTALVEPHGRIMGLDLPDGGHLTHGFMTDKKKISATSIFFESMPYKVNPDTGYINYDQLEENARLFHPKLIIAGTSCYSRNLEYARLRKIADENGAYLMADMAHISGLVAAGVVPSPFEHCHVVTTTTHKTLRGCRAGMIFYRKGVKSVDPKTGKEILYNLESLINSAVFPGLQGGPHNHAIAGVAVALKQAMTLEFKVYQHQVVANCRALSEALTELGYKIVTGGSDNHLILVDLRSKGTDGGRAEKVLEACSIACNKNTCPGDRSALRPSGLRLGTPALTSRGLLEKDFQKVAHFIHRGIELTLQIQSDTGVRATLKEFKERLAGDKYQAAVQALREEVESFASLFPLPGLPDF
As to the kind of experiment: SHMT1 inhibition (Table 2). It counts as biochemical.

Assay [2] concerns HCT116 cells. As to the kind of experiment: NAD2H labeling from [2,3,3-2H]serine in cultured cells. It counts as cell-based. On the procedure:
as §2
LC-MS. […] Solvent A is 95:5 water: acetonitrile with 20 mM ammonium acetate and 20 mM ammonium hydroxide at pH 9.4, and solvent B is acetonitrile. The gradient was 0 min, 85% B; 2 min, 85% B; 3 min, 60% B; 9 min, 60% B; 9.5 min, 35% B; 13 min, 5% B; 15.5 min, 5% B; 16 min, 85% B; 20 min, stop run. Injection volume was 15 μL. The Q-Exactive Plus mass spectrometer was operated in negative ion mode scanning from m/z 70-1000 with a resolution (at m/z 200) of 140,000 (AGC target 3e6, Maximum IT 200 ms) (Wang et al., 2019). A second scan from m/z 640-765 with a resolution (at m/z 200) of 35,000 (AGC target 5e5, maximum IT 200 ms) was used to measure NAD(P), NAD(P)H, and their labeling. The purpose of the second scan was to enhance sensitivity for NAD(P)(H) by restricting the range of ions in the orbitrap and to maximize the accuracy of isotope ratios by decreasing the scan range and mass resolution (Su et al., 2017).
Calculation of 2H-serine contribution to malate, aspartate, and NADH: For malate and aspartate, the 2H-labeling fraction was measured directly (fractional size of 2H-peak relative to sum of all peaks, after isotope correction as above). For NADH, the 2H-labeling fraction was measured based on the active hydride labeling (x), which was determined from the labeling pattern of NAD+ and NADH by least square fitting in MATLAB of the observed experimental data (after natural isotope correction) to the below vectors (Liu et al., 2016a).

Another assay relates to HCT116 xenograft tumors. The experiment in a line: HCT116 xenograft tumors, metabolomics and [2,3,3-2H]serine tracing. It counts as in vivo, mice. As for the experimental part:
Mouse Xenograft and allograft. For tumor xenograft tracing experiments, 6- to 7-week-old male CD1/nude mice were injected in the rear flanks with HCT-116 (1×10^6 cells in 100 μL 1:1 PBS:Matrigel). For tumor allograft tracing experiment, 6- to 8-wk-old male C57BL6 mice were injected in the rear flank with KrasLSL.G12D/+x p53R172H/+x PdxCretg/+ pancreatic tumor tissue suspension (200 μL 1:1 DMEM:Matrigel). Jugular vein catheterization surgery was performed when tumor size reached 250 mm3 [volume=1/2 (length×width×height)]. […] Tracing experiments were performed after 1 week of post-surgery monitoring. Tumors were removed and immediately clamped to aluminum foil using Wollenberger clamp and stored in liquid nitrogen. For Long term storage, tissues were kept in −80° C. until future sample preparation.
Metabolites extraction from tissue, tumors and serum. Tissues and tumors were collected from mice and immediately clamped into liquid nitrogen using Wollenberger clamp, tissue were stored in −80° C. Frozen tissues were transferred into 2 ml Eppendorf tubes, which are precooled on dry ice, and pulverized by using cyromill. The resulting tissue powder was weighed (around 10 mg) and mixed well by vortexing in extraction buffer (40 μL extraction buffer per mg tissue). The extraction solution was neutralized with NH4HCO3 as above and centrifuged in a microfuge at maximum speed for 30 min at 4° C. Supernatant was transferred to LC-MS vials for analysis.
IACS-10759 is a potent mitochondrial complex I inhibitor with efficacy in inhibiting tumor growth and inducing apoptosis in models of brain cancer and acute myeloid leukemia. Molina, J. R. et al., Nat. Med. 24, 1036-1046 (2018). […] To check whether circulating serine contributes NADH when respiration is impaired in vivo, [2,3,3-^2H]serine was infused into tumor bearing mice.

The next assay relates to liver NADH/NAD ratio. The experiment in a line: Serine/metformin drinking water, liver metabolomics. It counts as in vivo, mice. Particulars: 5% serine or 0.25% metformin drinking water for 2 weeks.
The next assay deals with T3, MTHFD2 (Homo sapiens, UniProt P13995).
T3 construct: purchased Raze Therapeutics (gift, not a catalogue product)
T3 sequence (P13995 36-350): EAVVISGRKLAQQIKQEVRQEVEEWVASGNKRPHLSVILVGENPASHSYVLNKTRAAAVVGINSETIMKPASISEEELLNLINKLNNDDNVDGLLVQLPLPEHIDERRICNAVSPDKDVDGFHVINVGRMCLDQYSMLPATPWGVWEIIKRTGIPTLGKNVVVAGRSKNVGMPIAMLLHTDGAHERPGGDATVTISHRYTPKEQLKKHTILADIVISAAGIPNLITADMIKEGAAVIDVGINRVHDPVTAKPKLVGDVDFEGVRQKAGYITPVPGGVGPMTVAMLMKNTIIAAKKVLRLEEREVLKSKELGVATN
The experiment in a line: Enzymatic assay for MTHFD2 with increasing NADH. Format: biochemical. On the procedure:
Enzymatic Assay for MTHFD2. NAD (Sigma N0632), NADH (Sigma N8129) and 5, 10-meTHF (Schircks Laboratories, 16.226) solution were freshly prepared each time in water. Reaction mixtures consisted of 50 mM KH2PO4 pH 7.4, 5 mM dithiothreitol (DTT), 5% DMSO, and 0.005 mg/mL MTHFD2 (obtained from Raze Therapeutics), and NAD and NADH as indicated in the Figures. Reaction mixtures were incubated for 5 min at 37° C. before initiation of the reaction by addition of 5,10-meTHF to a final concentration of 0.4 mM using multichannel. The plate was mixed for 5 s in the plate reader (Biotek Synergy HT), and the rate of change in absorbance at 340 nm due to NADH accumulation was recorded over the duration of linear NADH accumulation.
Enzymatic Assay for MDH. NAD and NADH solutions were freshly prepared in water; malate solution was prepared in 50 mM Tris-HCl and adjusted pH to 7.6 with 10 M KOH. […] The plate was mixed for 5 s in the plate reader, and absorbance at 340 nm recorded as above.
Enzymatic assay for PDH and KGDH: Pyruvate dehydrogenase and alpha-ketoglutarate dehydrogenase solutions were freshly prepared to a concentration 0.075 unit/ml with buffer containing 20 mM sodium phosphate and 1 mM MgCl2, pH7.2. […] The plate was mixed for 5 s in the plate reader, and absorbance at 340 nm recorded as above.

[3] abbreviates: IACS-10759 10 mg/kg gavage every day for 7 days, CD-1 nude mice.
Setting [4] is: cultured cells, complex I inhibitor added.

“Also recorded” adds a separate entry of the source.

For `Cc1[nH]nc2c1C(c1cc(CO)cc(-c3ccccc3)c1)(C(C)C)C(C#N)=C(N)O2` (centres unmarked) [HK-X2 (SHIN1)], the “cell proliferation / growth” value in the assay with HCT116 cells [1] (HCT116, in the presence of metformin) is “enhances growth; also recorded: augmented proliferation”. Further, the “cell proliferation / growth” value in the assay on HCT116 cells [1] (HCT116, in the presence of phenformin or rotenone) is given as “enhances growth; also recorded: augmented proliferation”. Also, the cell proliferation result in the assay with HCT116 cells [1] (HCT116, standard tissue culture conditions) is given as “decreased cell proliferation”. Besides, in the assay with HCT116 cells [1] (HCT116 WT, hypoxia (0.5% O2), low doses of SHIN1), the cell growth entry is “modestly increased cell growth”. Moreover, in the assay with C2C12 cells, the aspartate entry is “enhances aspartate” and the “cell growth / tolerance of metformin” value is listed as “restores; also recorded: better tolerated metformin”.

On to `Cc1n[nH]c2c1C(c1cc(Cl)cc(C(F)(F)F)c1)(C(C)C)C(C#N)=C(N)O2` (centres unmarked) [HK-15], for which the IC50 against SHMT2 amounted to 35 nM; against SHMT1, 20 nM.

On to `N#C/C(=C\c1cn(-c2ccccc2)c2ccccc12)C(=O)O` [UK5099], for which the “block of the pyruvate effect (rescue of NADH phenotypes)” value in the assay on HCT116 cells [2] (metformin-treated cells with pyruvate) was “does not block; also recorded: not blocked”.

As to `Cc1nc(-c2nc(-c3ccc(OC(F)(F)F)cc3)no2)nn1Cc1cccc(N2CCC(S(C)(=O)=O)CC2)c1` [IACS-10759], in the assay with HCT116 xenograft tumors (setting [3]), the “NADH/NAD ratio of tumors” value is recorded as “increased” and the intra-tumor lactate level entry is recorded as “increased”. The “2H-malate labeling from [2,3,3-2H]serine in tumors” value in the assay on HCT116 xenograft tumors (IACS-10759 10 mg/kg, 2.5 hours serine infusion) was “increased”.

On to `N[C@@H](CO)C(=O)O` [serine], for which the “NADH/NAD ratio in liver” value was “significantly increase” with liver NADH/NAD ratio and “increased” in the assay with liver NADH/NAD ratio (listed as Serine).

Consider `[H]/N=C(/N)N/C(=N/[H])NCCc1ccccc1` [phenformin], for which the “fractional contribution of serine to NADH” value (“fractional contribution” for short) in the assay on HCT116 cells [2] (setting [4]) was “dramatically elevated”.

Regarding `Cc1n[nH]c2c1C(c1cc(N3CCCC3)cc(C(F)(F)F)c1)(C(C)C)C(C#N)=C(N)O2` (centres unmarked) [HK-X1], the figures for the half-inhibitory concentration (IC50) against SHMT2 and against SHMT1 were 66 nM and 13 nM, respectively.

Consider `CC1=C(C)C(=O)C(C)=C(C)C1=O` [duroquinone], for which the “fractional contribution” value with HCT116 cells [2] (added to metformin-treated cells (HCT116, 5 mM metformin)) is listed as “decreased”.

In the case of `Cc1n[nH]c2c1C(c1cc(Cl)cc(Cl)c1)(C1CCC1)C(C#N)=C(N)O2` (centres unmarked) [HK-10], the IC50 against SHMT2 came to 1190 nM; at SHMT1, 593 nM.

Regarding `CN(C)C(=N)N=C(N)N` [metformin, reference compound], in the assay with liver NADH/NAD ratio, the “NADH/NAD ratio in liver” value was “increased; also recorded: significantly increase”. Further, the “fractional contribution” value in the assay on HCT116 cells [2] (setting [4]) is reported as “dramatically elevated”.

As for `Cc1n[nH]c2c1C(c1cc(Cl)cc(Cl)c1)(C(C)C)C(C#N)=C(N)O2` (centres unmarked) [HK-14], the concentration for half-maximal inhibition (IC50) at SHMT2 was determined as 131 nM; against SHMT1, 67 nM.

`NC(=O)C1=CN([C@@H]2O[C@H](COP(=O)(O)OP(=O)(O)OC[C@H]3O[C@@H](n4cnc5c(N)ncnc54)[C@H](O)[C@@H]3O)[C@@H](O)[C@H]2O)C=CC1` [NADH]: the “NADH level up to which MTHFD2 maintains full activity” value on MTHFD2 (NADH as competitive (product) inhibitor, adequate NAD) is “up to 200 μM”. The “sensitivity of MTHFD2 to NADH, less than PDH, KGDH and malate dehydrogenase” value on MTHFD2 (product inhibition by NADH) is “at least 10 fold”.
